Source: PMC12649549, “Sequence Permutation Generated Lysine and Tryptophan-Rich Antimicrobial Peptides with Enhanced Therapeutic Index” (Antibiotics, 2025)

Assays:
[1] = Calcein dye leakage assay, POPC:LPS LUVs; details: POPC:LPS (12.5:1) LUVs, final peptide concentration 2 μg/mL; n = 3
Method: (§1) Large unilamellar vesicles (LUVs) containing POPC:LPS (12.5:1, mol/mol) and POPC:cholesterol (2:1, mol/mol) were prepared using the extrusion method and an Avanti small-volume extrusion apparatus(Avanti Polar Lipids). To prepare the vesicles, phospholipids were dissolved in a chloroform/methanol mixture (4:1, v/v), evaporated using nitrogen gas, and suspended in PBS buffer. The lipid suspensions underwent six to eight cycles of freezing and thawing before being extruded ten times through a […] pore size polycarbonate filter, followed by ten times through a […] filter. Calcein-filled LUVs were also prepared by loading calcein-containing buffer (70 mM calcein and 10 mM Tris at pH 7.4) into a Sephadex G-75 column loaded with iso-osmotic buffer (100 mM sodium chloride and 10 mM Tris) to remove unencapsulated calcein. The phospholipid content of the vesicles was determined by assessing inorganic phosphate using the ammonium ferrothiocyanate method described by John Charles Marshall Stewart.
(§2) Calcein leakage induced by peptides was measured using a Perkin-Elmer luminescence spectrofluorimeter with excitation and emission wavelengths of 496 and 515 nm, respectively. Calcein-entrapped LUVs were diluted to a concentration of 10 µM. The maximum degree of leakage was induced by 100 mg/mL Triton X-100.
(§3) The degree of leakage induced by various peptide concentrations was calculated using the formula: Leakage % = ((F − F0)/(Fr − F0)) × 100%, where F0 and Fr represent the initial fluorescence intensities observed without peptide and after adding 100 mg/mL Triton X-100, respectively.

HaCaT cells = assay: Cell migration assay (in vitro wound healing assay); assay type: cell-based, human; details: 24 h
Method: Figure 3 Cell migration rate (In Vitro wound healing rate) of HaCaT cells induced by the designed peptides. […] (Bar: 200 μm) Results are presented as means ± standard deviations (SD); n = 3 (three independent experiments), ns = no significant differences; ** p < 0.01; *** p < 0.001; **** p < 0.0001 compared with PBS (Negative Control) and 100 ng/mL EGF (Positive Control).
For the Cell Migration Assay (in vitro wound healing assay), HaCaT cells (4 × 10^4 cells) were seeded on each side of an ibidi culture insert (ibidi, Germany) in DMEM medium supplemented with 10% fetal bovine serum. The inserts were placed into a 24-well plate and incubated at 37 °C and 5% CO2 overnight. After removing the inserts, 1 mL of serum-free DMEM medium supplemented with different concentrations of peptide was added. Medium without peptide and with 100 ng/mL EGF (epidermal growth factor) were used as negative and positive controls, respectively. The migration area was imaged at 0 and 24 h using an inverted fluorescent microscope (Zeiss/Observer Z1) at 10× magnification, and the area was quantified using ImageJ software(version 1.54g). The repairing rate was calculated using the formula: Repairing Rate = (Area0h-Area24h)/Area0h, where 0 h and 24 h represent the time points at which the images were taken.

[2] = system: human red blood cells (hRBCs); assay: Hemolytic activity assay; assay type: cell-based; details: 1 h; for lysis of RBCs (hemolysis): 200 μM peptide, 100% = 1% Triton X-100
Method: Equal volumes of peptides and hRBCs were mixed and incubated at 37 °C for 1 h. The supernatant was collected from the samples and tested for absorbance at 565 nm. Zero hemolysis (blank) was defined in PBS buffer, while 100% hemolysis was defined in 1% Triton X-100.
Hemolytic activity was evaluated by testing the ability of the peptides to cause lysis of human red blood cells (hRBCs), both in the presence and absence of the antimicrobial peptide. Blood samples were collected from healthy volunteers and treated with ethylenediaminetetraacetic acid (EDTA) to prevent coagulation. The hRBCs were then washed three times with phosphate-buffered saline (PBS) and pelleted by centrifugation at 800× g for 10 min. Next, the hRBCs were diluted in PBS to a final concentration of 10%. Peptides were serially diluted in PBS ranging from 400 µM to 3.13 µM, and an equal volume of 10% hRBC was added to each dilution. After incubation at 37 °C for 1 h, the supernatant was collected by centrifugation at 800× g for 10 min, and the absorbance at 565 nm was measured. Negative controls (PBS blank) and positive controls (1% Triton X-100 in PBS) were also included. The percentage of hemolysis was calculated using the following formula: %hemolysis = [(Asample − APBS)/(ATritonX-100 − APBS)] × 100%, where A is the absorbance under the specified conditions.

[3] = Calcein dye leakage assay, POPC:Cholesterol LUVs; details: POPC:Cholesterol (2:1) LUVs, final peptide concentration 2 μg/mL; n = 3
Method: as §1, §2, §3

[4] = hRBCs in PBS, 37 °C, absorbance 565 nm
[5] = hRBCs in PBS, 37 °C, absorbance 565 nm, 108.7 µg/mL(200 µM) used when no detectable hemolytic activity

Row | Substance | calcein leakage [1] | wound healing effect (cell migration rate) (HaCaT cells; 4 µg/mL peptide) | lysis of RBCs (hemolysis) [2, 4] | wound healing effect (cell migration rate) (HaCaT cells; serum-free DMEM, 0.25 µg/mL to 4 µg/mL, compared to the negative control) | calcein leakage [3] | HC10 (concentration that induced 10% hemolysis of human red blood cells) ([2]; phosphate buffer) | HC10 (concentration that induced 10% hemolysis of human red blood cells) [2, 5]
1 | Ac-AKKKKWRKWLKWL-NH2 [Peptide W5K10] | 81% | comparable wound healing effects | less than 10% |  |  |  | 
2 | Ac-KKKKWRKWLKWLA-NH2 [Peptide W5K11] | 85% | comparable wound healing effects | ~27% | superior wound healing effect even at the lowest concentration of 0.25 µg/mL | above 60% | 71.0 µg/mL | 
3 | Ac-KKKWRKWLKWLAK-NH2 [Peptide W5K12] | 82% |  | ~30% |  | above 60% |  | 41.7 µg/mL
4 | Ac-KKWRKWLKWLAKK-NH2 [W5K/A9W] | 82% | comparable wound healing effects | approximately 35% |  | above 60% |  | 30.0 µg/mL
5 | Ac-KWRKWLKWLAKKK-NH2 [Peptide W5K01] | 74% |  | ~25% |  | above 60% |  | 70.9 µg/mL
6 | Ac-WLKWLAKKKKWRK-NH2 [Peptide W5K05] | 69% |  |  |  |  |  | 
7 | Ac-WRKWLKWLAKKKK-NH2 [Peptide W5K02] | 78% |  | ~34% |  | above 60% |  | 16.7 µg/mL
